Data set [1] concerns Mus musculus. As to the kind of experiment: Toxicity in SW480 cells xenografted nude mouse assessed as change in body weight 2 mg/kg/day, ip after 21 days. As to conditions: in vivo, 504 h. The class given is organism-based. Also noted: route intraperitoneal.
For data set [2], the system named is SW-620. The experiment in a line: Antitumor activity in human SW620 cells xenografted nude mouse assessed as decrease in tumor volume at 2 mg/kg, ip after 21 days. Format: functional. Also noted: scale not given: the % may be the effect or the level left. As to conditions: route intraperitoneal. In general terms: In xenograft studies the graft and the host belong to different species.

The subject of data set [3] is SW-620. The experiment in a line: Antitumor activity in human SW620 cells xenografted nude mouse assessed as decrease in tumor weight at 2 mg/kg, ip after 21 days. As to conditions: route intraperitoneal. Also noted: scale not given: the % may be the effect or the level left. Format: functional.
Data set [4] has as its system SW-620. As to the kind of experiment: Antitumor activity in human SW620 cells xenografted nude mouse assessed as decrease in tumor volume at 5 mg/kg/day, po after 27 days. Format: functional.
Data set [5] concerns SW-620. The experiment in a line: Antitumor activity in human SW620 cells xenografted nude mouse assessed as decrease in tumor volume at 5 mg/kg/day, po after 23 days. The class given is functional.
In data set [6] the test system is SW-620. The experiment in a line: Antitumor activity in human SW620 cells xenografted nude mouse assessed as decrease in tumor volume at 5 mg/kg/day, po after 16 days. The class given is functional.
In data set [7] the test system is SW-620. The experiment in a line: Antitumor activity in human SW620 cells xenografted nude mouse assessed as decrease in tumor volume at 5 mg/kg/day, po after 10 days. Format: functional.
The test system of data set [8] is SW-620. As to the kind of experiment: Antitumor activity in human SW620 cells xenografted nude mouse assessed as decrease in tumor volume at 5 mg/kg/day, po after 5 days. The class given is functional.
In data set [9] the test system is Mus musculus. As to the kind of experiment: Toxicity in SW480 cells xenografted nude mouse assessed as change in body weight 5 mg/kg/day, ip after 21 days. The class given is organism-based. Also noted: route intraperitoneal. As to conditions: in vivo, 504 h.
Data set [10] has as its system SW-620. As to the kind of experiment: Effect on apoptosis-mediated morphological changes in human SW620 cells assessed as round cell formation. Format: functional, cell-based.
A further data set concerns HT-29. The experiment in a line: Antiproliferative activity against human HT-29 cells after 48 hrs by MTS assay. The class given is functional, cell-based.
The next data set deals with MCF7. As to the kind of experiment: Antiproliferative activity against human MCF7 cells after 48 hrs by MTS assay. The class given is functional, cell-based. Background: Tetrazolium assays rely on reduction of a dye to a coloured formazan, in cell work by metabolically active cells.
The test system of data set [11] is SW-620. As to the kind of experiment: Antitumor activity against human SW620 cells at 50 uM after 48 hrs. Format: functional. As to conditions: SW-620, 48 h.
Data set [12] has as its system SW-620. The experiment in a line: Induction of apoptosis in human SW620 cells assessed as necrosis relative to control. The class given is functional.
Data set [13] deals with SW-620. As to the kind of experiment: Antitumor activity against human SW620 cells at 30 uM after 24 hrs. Format: functional. As to conditions: SW-620, 24 h.
In data set [14] the test system is SW-620. As to the kind of experiment: Antitumor activity in human SW620 cells xenografted nude mouse assessed as decrease in tumor weight at 5 mg/kg/day, ip after 21 days. Format: functional. Also on record: scale not given: the % may be the effect or the level left. As to conditions: route intraperitoneal.
The test system of data set [15] is SW-620. As to the kind of experiment: Antitumor activity against human SW620 cells at 50 uM after 72 hrs. The class given is functional. As to conditions: SW-620, 72 h.
For data set [16], the system named is SW-620. As to the kind of experiment: Antitumor activity against human SW620 cells at 30 uM after 48 hrs. Format: functional. As to conditions: SW-620, 48 h.
The next data set relates to PC-3. As to the kind of experiment: Antiproliferative activity against human PC-3 cells after 48 hrs by MTS assay. Format: functional, cell-based.
In a further data set the test system is DLD-1. The experiment in a line: Antiproliferative activity against human DLD1 cells after 48 hrs by MTS assay. Format: functional, cell-based.
In data set [17] the test system is SW-620. The experiment in a line: Cell cycle arrest in human SW620 cells assessed as accumulation at subG1 phase at 50 uM after 72 hrs by FACS analysis. The class given is functional. (Flow cytometry measures light scatter and fluorescence of single cells or particles in a stream.)
Data set [18] deals with SW-620. The experiment in a line: Cell cycle arrest in human SW620 cells assessed as accumulation at S phase at 50 uM after 72 hrs by FACS analysis. The class given is functional.
Data set [19] concerns SW-620. As to the kind of experiment: Antitumor activity against human SW620 cells at 30 uM after 96 hrs. Format: functional. As to conditions: SW-620, 96 h.
The subject of data set [20] is SW-620. As to the kind of experiment: Antitumor activity against human SW620 cells at 50 uM after 96 hrs. The class given is functional. As to conditions: SW-620, 96 h.
The test system of data set [21] is SW-620. The experiment in a line: Antitumor activity in human SW620 cells xenografted nude mouse assessed as decrease in tumor volume at 5 mg/kg/day, ip after 21 days. Format: functional. As to conditions: route intraperitoneal.
Data set [22] has as its system SW-620. As to the kind of experiment: Induction of apoptosis in human SW620 cells assessed as apoptotic cell form at 50 uM relative to control. The class given is functional.
The test system of another data set is DU-145. As to the kind of experiment: Antiproliferative activity against human DU145 cells after 48 hrs by MTS assay. Format: functional, cell-based.
Data set [23] has as its system SW-620. As to the kind of experiment: Antitumor activity against human SW620 cells at 100 uM after 72 hrs. Format: functional. As to conditions: SW-620, 72 h.
Data set [24] deals with SW-620. The experiment in a line: Antitumor activity against human SW620 cells at 100 uM after 48 hrs. As to conditions: SW-620, 48 h. Format: functional.
In data set [25] the test system is SW-620. As to the kind of experiment: Cell cycle arrest in human SW620 cells assessed as accumulation at G1 phase at 50 uM after 72 hrs by FACS analysis. The class given is functional.
The test system of a further data set is K562. The experiment in a line: Antiproliferative activity against human K-562 cells after 48 hrs by MTS assay. Format: functional, cell-based.
For data set [26], the system named is SW-620. The experiment in a line: Antitumor activity against human SW620 cells at 50 uM after 24 hrs. Format: functional. As to conditions: SW-620, 24 h.
The test system of data set [27] is SW-620. As to the kind of experiment: Antitumor activity against human SW620 cells at 100 uM after 96 hrs. The class given is functional. As to conditions: SW-620, 96 h.
Data set [28] concerns SW-620. The experiment in a line: Antitumor activity against human SW620 cells at 100 uM after 24 hrs. The class given is functional. As to conditions: SW-620, 24 h.
The test system of data set [29] is SW-620. As to the kind of experiment: Induction of apoptosis in human SW620 cells assessed as chromosomal DNA fragmentation at […] after 48 hrs by FACS analysis. The class given is functional, cell-based.
Data set [30] concerns MDA-MB-231. The experiment in a line: Antiproliferative activity against human MDA-MB-231 cells after 48 hrs by MTS assay. The class given is functional, cell-based.
Data set [31] relates to MDA-MB-231. As to the kind of experiment: Induction of apoptosis in human MDA-MB-231 cells assessed as morphological changes in presence of N-acetyl-cysteine after 24 hrs. Format: functional, cell-based.
In data set [32] the test system is MDA-MB-231. As to the kind of experiment: Induction of apoptosis in human MDA-MB-231 cells assessed as ROS production after 24 hrs. The class given is functional, cell-based.
The subject of data set [33] is SW-620. The experiment in a line: Antitumor activity against human SW620 cells at 30 uM after 72 hrs. Format: functional. As to conditions: SW-620, 72 h.
The test system of data set [34] is SW-620. The experiment in a line: Cell cycle arrest in human SW620 cells assessed as accumulation at G2/M phase at 50 uM after 72 hrs by FACS analysis. Format: functional.
The subject of a further data set is HCT-116. As to the kind of experiment: Antiproliferative activity against human HCT 116 cells after 48 hrs by MTS assay. The class given is functional, cell-based.

Calls of active or inactive are those of the source. No cut-off for these calls is given here.

On to `COc1cccc2c1C(=O)c1c(O)c3c(c(O)c1C2=O)C[C@@](O)(C(=O)CO)C[C@@H]3O[C@H]1C[C@H](N)[C@H](O)[C@H](C)O1` [DOXORUBICIN], for which the values for the Activity with Mus musculus [1], in the data set on SW-620 [2] and in the data set with SW-620 [3] were 13.1%, 58% and 53.7%, respectively.
As for `C=CCc1ccc(O)c(-c2ccc(O)c(CC=C)c2)c1` [HONOKIOL], the Activity in the data set with SW-620 [4] is given as 900 mm3; with SW-620 [5], 600 mm3; in the data set on SW-620 [6], 270 mm3; in the data set on SW-620 [7] it was 150 mm3; in the data set with SW-620 [8] it was 100 mm3; in the data set on Mus musculus [9] it was “Non-toxic”.
As a reminder, the inhibition is the drop in the measured response relative to a control, in per cent. On to `C=CCc1ccc(Oc2cc(CC=C)cc(O)c2O)cc1` [OBOVATOR], for which the result in the data set on SW-620 [10], in the data set with HT-29, with MCF7, in the data set on PC-3, in the data set on DLD-1 and with DU-145 was Active. Also, the outcome in the data set on K562, in the data set on SW-620 [29], in the data set on MDA-MB-231 [30] and in the data set with HCT-116 was Active. The inhibition at 50 µM in the data set on SW-620 [11] was found to be 57%; with SW-620 [15] it was 64%; with SW-620 [20] it was 85%; with SW-620 [26], 21%. Also, the Activity in the data set with SW-620 [12] is less than 12%; in the data set on SW-620 [14], 44.6%; with SW-620 [17], 23.36%; in the data set with SW-620 [4], 750 mm3; with SW-620 [18], 30.4%; in the data set on SW-620 [21], 277 mm3. Further, the Activity in the data set on SW-620 [5] is 400 mm3; in the data set with SW-620 [22] it was less than 50%; with SW-620 [6], 150 mm3; in the data set with SW-620 [25], 53.6%; with SW-620 [7], 130 mm3; with SW-620 [8] it was 100 mm3. In addition, the Activity in the data set on SW-620 [34] is listed as 16%; in the data set with Mus musculus [9], “Non-toxic”. The inhibition at 30 µM in the data set on SW-620 [13] came to 7%; in the data set on SW-620 [16], 26%; in the data set with SW-620 [19], 18%; with SW-620 [33], 33%. The inhibition at 100 µM in the data set with SW-620 [23] was found to be 97%; with SW-620 [24], 92%; in the data set on SW-620 [27], 98%; in the data set on SW-620 [28] it was 36%. For the same compound, the outcome with MDA-MB-231 [31] and with MDA-MB-231 [32] was inactive.

Values taken from ChEMBL document CHEMBL1144188, “Obovatol inhibits colorectal cancer growth by inhibiting tumor cell proliferation and inducing apoptosis” (Bioorg Med Chem, 2008).
